In test [1] the target is human TLR8 (Homo sapiens (Human), UniProt Q9NR97). In words: TLR8 inhibition reporter assay (HEK-Blue cells, SEAP reporter, R848 stimulation).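 Note: compounds tested from 0.05 nM to 50 µM, 22 h at 37 °C, SEAP measured with HEK-Blue Detection, inhibition relative to agonist plus DMSO versus a known inhibitor.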
Test [2] concerns the target human TLR9 (Homo sapiens (Human), UniProt Q9NR96). In words: TLR9 inhibition reporter assay (HEK-Blue cells, SEAP reporter, ODN2006 stimulation).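 Note: compounds tested over 0.05 nM to 50 µM, 22 h incubation, inhibition taken as SEAP signal drop from agonist plus DMSO wells toward a known inhibitor control.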 For orientation: In a reporter assay the amount or activity of a reporter protein is the signal.
Test [3] deals with human TLR7 (Homo sapiens (Human), UniProt Q9NYK1). In words: TLR7 inhibition reporter assay (HEK-Blue cells, SEAP reporter, gardiquimod stimulation). The class given is cell-based.
[4] abbreviates: read-out: TLR8 IC50, HEK-Blue cells, R848 15.9 μM.
Where [5] appears, read: read-out: TLR9 IC50, HEK-Blue cells, ODN2006 5 nM.
Setting [6] is: HEK-Blue cells, gardiquimod 7.5 μM.
[7] abbreviates: read-out: TLR8 IC50, HEK-Blue cells overexpressing human TLR8, R848 15.9 μM.
Where [8] appears, read: read-out: TLR9 IC50, HEK-Blue cells overexpressing human TLR9, ODN2006 5 nM.
[9] abbreviates: HEK-Blue cells overexpressing human TLR7, gardiquimod 7.5 μM.

Consider 26 molecules from patent US10660877B2 (BRISTOL-MYERS SQUIBB COMPANY, priority 2016, dated 2020).

Like-named read-outs stand apart in the source and are kept apart here.

For orientation: IC50 means the concentration at which inhibition is half-maximal.

human TLR8, sequence (Q9NR97 27-1041): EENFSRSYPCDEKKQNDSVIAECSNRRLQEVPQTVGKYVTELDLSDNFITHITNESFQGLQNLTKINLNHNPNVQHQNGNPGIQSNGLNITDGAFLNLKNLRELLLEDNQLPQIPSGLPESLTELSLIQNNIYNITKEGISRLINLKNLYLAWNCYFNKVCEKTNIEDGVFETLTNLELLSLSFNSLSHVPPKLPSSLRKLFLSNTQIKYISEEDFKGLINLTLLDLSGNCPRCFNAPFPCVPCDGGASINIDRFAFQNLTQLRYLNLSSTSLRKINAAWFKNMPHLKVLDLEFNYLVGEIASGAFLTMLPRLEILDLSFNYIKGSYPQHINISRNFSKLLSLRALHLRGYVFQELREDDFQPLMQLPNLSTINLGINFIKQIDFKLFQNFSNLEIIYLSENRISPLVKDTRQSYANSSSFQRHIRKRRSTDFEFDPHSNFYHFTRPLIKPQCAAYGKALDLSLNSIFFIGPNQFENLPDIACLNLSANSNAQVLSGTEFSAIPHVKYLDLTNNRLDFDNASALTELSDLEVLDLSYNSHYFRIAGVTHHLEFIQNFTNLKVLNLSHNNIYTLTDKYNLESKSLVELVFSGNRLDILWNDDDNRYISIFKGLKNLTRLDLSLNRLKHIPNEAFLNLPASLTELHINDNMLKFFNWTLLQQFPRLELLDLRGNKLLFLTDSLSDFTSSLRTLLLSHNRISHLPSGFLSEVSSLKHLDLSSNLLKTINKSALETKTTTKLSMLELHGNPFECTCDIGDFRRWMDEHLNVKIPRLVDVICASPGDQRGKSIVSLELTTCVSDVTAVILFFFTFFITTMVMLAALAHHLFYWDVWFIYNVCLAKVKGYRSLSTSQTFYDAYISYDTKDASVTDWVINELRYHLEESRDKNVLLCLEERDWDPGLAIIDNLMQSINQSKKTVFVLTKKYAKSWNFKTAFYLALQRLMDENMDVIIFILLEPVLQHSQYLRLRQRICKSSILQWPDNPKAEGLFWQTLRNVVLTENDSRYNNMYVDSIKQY
human TLR9, sequence (Q9NR96 26-1032): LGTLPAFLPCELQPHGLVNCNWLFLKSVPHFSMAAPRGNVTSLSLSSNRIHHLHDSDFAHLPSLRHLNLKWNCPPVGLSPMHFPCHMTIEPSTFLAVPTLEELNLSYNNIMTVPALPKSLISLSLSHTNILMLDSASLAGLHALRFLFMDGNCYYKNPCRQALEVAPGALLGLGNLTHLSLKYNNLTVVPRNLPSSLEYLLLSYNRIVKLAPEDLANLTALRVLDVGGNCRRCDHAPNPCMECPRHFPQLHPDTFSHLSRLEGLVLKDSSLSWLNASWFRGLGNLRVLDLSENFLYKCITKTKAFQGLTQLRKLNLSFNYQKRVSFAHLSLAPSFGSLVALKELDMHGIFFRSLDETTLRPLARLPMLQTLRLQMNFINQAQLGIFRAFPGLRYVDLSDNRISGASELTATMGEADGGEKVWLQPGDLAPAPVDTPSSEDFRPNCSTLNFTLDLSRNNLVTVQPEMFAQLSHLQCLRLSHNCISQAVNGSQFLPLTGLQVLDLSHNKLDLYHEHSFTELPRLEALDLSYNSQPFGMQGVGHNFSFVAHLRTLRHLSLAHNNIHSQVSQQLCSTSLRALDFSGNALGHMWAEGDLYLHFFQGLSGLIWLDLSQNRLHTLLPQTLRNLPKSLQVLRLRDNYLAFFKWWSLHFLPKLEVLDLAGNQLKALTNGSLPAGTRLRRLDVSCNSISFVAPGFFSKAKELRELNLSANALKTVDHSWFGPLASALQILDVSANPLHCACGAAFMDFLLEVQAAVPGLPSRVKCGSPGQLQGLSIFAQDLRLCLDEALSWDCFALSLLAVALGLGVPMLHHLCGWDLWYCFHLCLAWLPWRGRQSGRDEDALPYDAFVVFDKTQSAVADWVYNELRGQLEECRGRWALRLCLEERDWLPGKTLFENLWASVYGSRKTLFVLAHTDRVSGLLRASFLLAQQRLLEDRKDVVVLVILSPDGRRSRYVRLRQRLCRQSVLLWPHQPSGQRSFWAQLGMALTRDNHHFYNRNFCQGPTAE
human TLR7, sequence (Q9NYK1 27-1049): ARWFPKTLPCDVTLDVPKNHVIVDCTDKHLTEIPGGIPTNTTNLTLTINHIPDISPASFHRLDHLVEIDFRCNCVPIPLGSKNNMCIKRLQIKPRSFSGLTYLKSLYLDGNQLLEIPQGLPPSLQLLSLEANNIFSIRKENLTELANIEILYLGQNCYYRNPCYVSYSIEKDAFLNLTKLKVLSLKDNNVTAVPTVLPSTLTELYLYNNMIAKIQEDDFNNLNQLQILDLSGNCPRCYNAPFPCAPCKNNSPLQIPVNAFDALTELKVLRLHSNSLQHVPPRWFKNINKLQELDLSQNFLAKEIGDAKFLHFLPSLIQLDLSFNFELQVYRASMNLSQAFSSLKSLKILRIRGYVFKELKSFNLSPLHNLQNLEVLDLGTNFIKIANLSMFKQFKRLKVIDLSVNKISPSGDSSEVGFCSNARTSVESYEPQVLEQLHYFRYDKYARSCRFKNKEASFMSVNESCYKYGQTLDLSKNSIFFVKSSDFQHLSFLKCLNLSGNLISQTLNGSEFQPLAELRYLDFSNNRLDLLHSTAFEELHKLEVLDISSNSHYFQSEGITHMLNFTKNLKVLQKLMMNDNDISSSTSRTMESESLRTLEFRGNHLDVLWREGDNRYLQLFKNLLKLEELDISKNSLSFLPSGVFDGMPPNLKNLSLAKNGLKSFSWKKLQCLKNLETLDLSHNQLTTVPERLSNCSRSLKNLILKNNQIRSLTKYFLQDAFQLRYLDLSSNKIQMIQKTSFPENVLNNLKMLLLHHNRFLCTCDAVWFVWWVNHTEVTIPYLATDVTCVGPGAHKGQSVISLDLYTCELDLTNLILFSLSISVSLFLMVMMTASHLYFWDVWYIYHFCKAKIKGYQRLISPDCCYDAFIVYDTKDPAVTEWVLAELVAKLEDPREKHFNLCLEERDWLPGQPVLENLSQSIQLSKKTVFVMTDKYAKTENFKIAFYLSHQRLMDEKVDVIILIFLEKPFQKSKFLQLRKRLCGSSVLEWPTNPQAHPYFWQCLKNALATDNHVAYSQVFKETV

Consider `Cc1cc(-c2[nH]c3ccc(C4CCN(CC5CCN(C(C)C)CC5)CC4)c(F)c3c2C(C)C)ccn1` [Example 874, 4-fluoro-3-isopropyl-5-(1-((1-isopropylpiperidin-4-yl)methyl)piperidin-4-yl)-2-(2-methylpyridin-4-yl)-1H-indole], for which the 50% inhibitory concentration (IC50) in test [1] (setting [4]) amounted to 33.6 nM; in test [2] (setting [5]), 445 nM; in test [3] (setting [6]) it was 15.4 nM.

Consider `Cc1cc(-c2[nH]c3ccc(C4CCN(C(=O)CN5CCC(F)(F)C5)CC4)cc3c2C(C)C)cc(C)n1` [Example 341, 2-(3,3-difluoropyrrolidin-1-yl)-1-(4-(2-(2,6-dimethylpyridin-4-yl)-3-isopropyl-1H-indol-5-yl)piperidin-1-yl)ethan-1-one], for which the IC50 in test [1] (setting [7]) was 211 nM; in test [2] (setting [8]), 25400 nM; in test [3] (setting [9]), 22.7 nM.

In the case of `Cc1cc(-c2[nH]c3ccc(C4CCN(Cc5ccccn5)CC4)cc3c2C(C)C)cc(C)n1` [Example 431, 2-(2,6-dimethylpyridin-4-yl)-3-isopropyl-5-(1-(pyridin-2-ylmethyl)piperidin-4-yl)-1H-indole], the IC50 in test [1] (setting [7]) was 6.7 nM; in test [2] (setting [8]), 457 nM; in test [3] (setting [9]) it was 8.4 nM.

In the case of `Cc1cc(-c2[nH]c3ccc(C4CCN(CC5CCCCC5)CC4)cc3c2C(C)C)cc(C)n1` [Example 328, 5-(1-(cyclohexylmethyl)piperidin-4-yl)-2-(2,6-dimethylpyridin-4-yl)-3-isopropyl-1H-indole], the IC50 in test [1] (setting [7]) worked out at 77.1 nM; in test [2] (setting [8]), 7220 nM; in test [3] (setting [9]), 49.8 nM.

Consider `Cc1cc(-c2[nH]c3cc(F)c(C4CCN(C)CC4)cc3c2C(C)C)cc(C)n1` [Example 828, 2-(2,6-dimethylpyridin-4-yl)-6-fluoro-3-isopropyl-5-(1-methylpiperidin-4-yl)-1H-indole], for which the results for the IC50 in test [1] (setting [4]), in test [2] (setting [5]) and in test [3] (setting [6]) were 4.8 nM, 267 nM and 1.2 nM, respectively.

For the molecule `Cc1cc(-c2[nH]c3ccc(C4CCNCC4)cc3c2C(C)C(F)(F)F)cc(C)n1` (stereo not drawn) [Example 92, 2-(2,6-dimethylpyridin-4-yl)-5-(piperidin-4-yl)-3-(1,1,1-trifluoropropan-2-yl)-1H-indole], the IC50 in test [1] (setting [7]) was determined as 5.2 nM; in test [2] (setting [8]), 446 nM; in test [3] (setting [9]), 0.6 nM.

For `Cc1cc(-c2[nH]c3ccc(C4CCN(C(=O)C5CNC(=O)C5)CC4)cc3c2C(C)C)ccn1` (stereo not drawn) [Example 612, 4-(4-(3-isopropyl-2-(2-methylpyridin-4-yl)-1H-indol-5-yl)piperidine-1-carbonyl)pyrrolidin-2-one], the values for the IC50 in test [1] (setting [7]), in test [2] (setting [8]) and in test [3] (setting [9]) were 162 nM, 16700 nM and 73 nM, respectively.

Take `CCc1c(-c2ccnc(C)c2)[nH]c2ccc(C3CCN(CC(O)CN(C)C(C)C)CC3)cc12` (stereo not drawn) [Example 877, 1-(4-(3-ethyl-2-(2-methylpyridin-4-yl)-1H-indol-5-yl)piperidin-1-yl)-3-(isopropyl(methyl)amino)propan-2-ol]: the IC50 turned out to be 2.9 nM in test [1] (setting [4]), 16 nM in test [2] (setting [5]) and 30.6 nM in test [3] (setting [6]).

As to `Cc1cc(-c2[nH]c3ccc(C4CCN(CC(=O)N[C@H](CO)CC(C)C)CC4)cc3c2C(C)C)cc(C)n1` [Example 276, (S)-2-(4-(2-(2,6-dimethylpyridin-4-yl)-3-isopropyl-1H-indol-5-yl)piperidin-1-yl)-N-(1-hydroxy-4-methylpentan-2-yl)acetamide], the figures for the IC50 in test [1] (setting [7]), in test [2] (setting [8]) and in test [3] (setting [9]) were 18.6 nM, 853 nM and 6.3 nM, respectively.

Regarding `Cc1cc(-c2[nH]c3ccc(C4CCN(CCOc5ccccc5)CC4)cc3c2C(C)C)ccn1` [Example 663, 3-isopropyl-2-(2-methylpyridin-4-yl)-5-(1-(2-phenoxyethyl)piperidin-4-yl)-1H-indole], the IC50 was found to be 31.2 nM in test [1] (setting [7]), 1100 nM in test [2] (setting [8]) and 112 nM in test [3] (setting [9]).

Turning to `Cc1cc(-c2[nH]c3ccc(C4CCN(C(=O)C5CCNCC5)CC4)cc3c2C(C)C)ccn1` [Example 573, (4-(3-isopropyl-2-(2-methylpyridin-4-yl)-1H-indol-5-yl)piperidin-1-yl)(piperidin-4-yl)methanone], the IC50 in test [1] (setting [7]) came to 33.9 nM; in test [2] (setting [8]), 379 nM; in test [3] (setting [9]) it was 12.9 nM.

In the case of `CCc1c(-c2ccnc(C)c2)[nH]c2ccc(C3CCN(C(=O)c4ccncc4)CC3)cc12` [Example 591, (4-(3-ethyl-2-(2-methylpyridin-4-yl)-1H-indol-5-yl)piperidin-1-yl)(pyridin-4-yl)methanone], the results for the IC50 in test [1] (setting [7]), in test [2] (setting [8]) and in test [3] (setting [9]) were 241 nM, 15400 nM and 251 nM, respectively.

Regarding `Cc1cc(-c2[nH]c3ccc(C4CCN(CC5CC5)CC4)cc3c2C(C)C)ccn1` [Example 866, 5-(1-(cyclopropylmethyl)piperidin-4-yl)-3-isopropyl-2-(2-methylpyridin-4-yl)-1H-indole], the figures for the IC50 in test [1] (setting [4]), in test [2] (setting [5]) and in test [3] (setting [6]) were 12.2 nM, 1690 nM and 38.1 nM, respectively.

As to `Cc1cc(-c2[nH]c3ccc(C4CCNCC4)cc3c2C(C)C)c(Cl)c(C)n1` [Example 50, 2-(3-chloro-2,6-dimethylpyridin-4-yl)-3-isopropyl-5-(piperidin-4-yl)-1H-indole], the half-maximal inhibitory concentration (IC50) was 1.9 nM in test [1] (setting [7]), 12700 nM in test [2] (setting [8]) and 3.2 nM in test [3] (setting [9]).

In the case of `Cc1cc(-c2[nH]c3ccc(C4CCN(C(=O)[C@@H]5CC(F)(F)CN5)CC4)cc3c2C(C)C)cc(C)n1` [Example 189, (S)-(4,4-difluoropyrrolidin-2-yl)(4-(2-(2,6-dimethylpyridin-4-yl)-3-isopropyl-1H-indol-5-yl)piperidin-1-yl) methanone], the values for the IC50 in test [1] (setting [7]), in test [2] (setting [8]) and in test [3] (setting [9]) were 74.3 nM, 15100 nM and 7 nM, respectively.

In the case of `CCc1c(-c2ccncc2)[nH]c2ccc(C3CCNCC3)cc12` [Example 60, 3-ethyl-5-(piperidin-4-yl)-2-(pyridin-4-yl)-1H-indole], the half-inhibitory concentration (IC50) turned out to be 36.8 nM in test [1] (setting [7]), 671 nM in test [2] (setting [8]) and 96.3 nM in test [3] (setting [9]).

Turning to `Cc1cc(-c2[nH]c3ccc(C4CCN(CC(=O)NC5(C)COC5)CC4)cc3c2C(C)C)cc(C)n1` [Example 233, 2-(4-(2-(2,6-dimethylpyridin-4-yl)-3-isopropyl-1H-indol-5-yl)piperidin-1-yl)-N-(3-methyloxetan-3-yl)acetamide], the half-maximal inhibitory concentration (IC50) is 6.4 nM in test [1] (setting [7]), 970 nM in test [2] (setting [8]) and 6.3 nM in test [3] (setting [9]).

As to `Cc1cc(-c2[nH]c3ccc(C4CCN(CC(=O)N(C)[C@H]5CCOC5)CC4)cc3c2C(C)C)cc(C)n1` [Example 307, (S)-2-(4-(2-(2,6-dimethylpyridin-4-yl)-3-isopropyl-1H-indol-5-yl)piperidin-1-yl)-N-methyl-N-(tetrahydrofuran-3-yl)acetamide], the half-maximal inhibitory concentration (IC50) turned out to be 87.2 nM in test [1] (setting [7]), 3680 nM in test [2] (setting [8]) and 17.7 nM in test [3] (setting [9]).

Consider `CCC(C)CN(CCO)CC(=O)N1CCC(c2ccc3[nH]c(-c4cc(C)nc(C)c4)c(C(C)C)c3c2)CC1` (stereo not drawn) [Example 406, 1-(4-(2-(2,6-dimethylpyridin-4-yl)-3-isopropyl-1H-indol-5-yl)piperidin-1-yl)-2-((2-hydroxyethyl)(2-methylbutyl)amino)ethan-1-one], for which the results for the IC50 in test [1] (setting [7]), in test [2] (setting [8]) and in test [3] (setting [9]) were 73.8 nM, 1070 nM and 7.8 nM, respectively.

For `Cc1cc(-c2[nH]c3ccc(C4CCN(CC5CCOC5)CC4)cc3c2C(C)C)cc(C)n1` (stereo not drawn) [Example 469, 2-(2,6-dimethylpyridin-4-yl)-3-isopropyl-5-(1-((tetrahydrofuran-3-yl)methyl)piperidin-4-yl)-1H-indole], the IC50 turned out to be 2.9 nM in test [1] (setting [7]), 280 nM in test [2] (setting [8]) and 2.1 nM in test [3] (setting [9]).

`CCc1c(-c2ccnc(Cl)c2)[nH]c2ccc(C3CCN(C4CCN(CC(C)C)CC4)CC3)cc12` [Example 758, 2-(2-chloropyridin-4-yl)-3-ethyl-5-(1′-isobutyl-[1,4′-bipiperidin]-4-yl)-1H-indole]: the IC50 in test [1] (setting [7]) was 136 nM; in test [2] (setting [8]), 751 nM; in test [3] (setting [9]) it was 967 nM.

With `CCc1c(-c2cc(Cl)ncc2F)[nH]c2ccc(C3CCN(C4CCN(CC(C)C)CC4)CC3)cc12` [Example 760, 2-(2-chloro-5-fluoropyridin-4-yl)-3-ethyl-5-(1′-isobutyl-[1,4′-bipiperidin]-4-yl)-1H-indole], the IC50 in test [1] (setting [7]) amounted to 107 nM; in test [2] (setting [8]), 2390 nM; in test [3] (setting [9]), 537 nM.

Consider `CC(=O)N1CCC(c2ccc3[nH]c(-c4cc(C)nc(C)c4)c(C(C)C)c3c2)CC1` [Example 174, 1-(4-(2-(2,6-dimethylpyridin-4-yl)-3-isopropyl-1H-indol-5-yl)piperidin-1-yl)ethan-1-one], for which the IC50 in test [1] (setting [7]) stood at 81.1 nM; in test [2] (setting [8]) it was 35100 nM; in test [3] (setting [9]) it was 5.5 nM.

Take `CCc1c(-c2ccnc(C)c2)[nH]c2c(F)cc(C3CCNCC3)cc12` [Example 81, 3-ethyl-7-fluoro-2-(2-methylpyridin-4-yl)-5-(piperidin-4-yl)-1H-indole]: the IC50 in test [1] (setting [7]) turned out to be 907 nM; in test [2] (setting [8]), 696 nM; in test [3] (setting [9]), 614 nM.

Turning to `Cc1cc(-c2[nH]c3ccc(C4CCN(Cc5nn[nH]n5)CC4)cc3c2C(C)C)cc(C)n1` [Example 462, 5-(1-((2H-tetrazol-5-yl)methyl)piperidin-4-yl)-2-(2,6-dimethylpyridin-4-yl)-3-isopropyl-1H-indole], the IC50 in test [1] (setting [7]) was determined as 210 nM; in test [2] (setting [8]), 5260 nM; in test [3] (setting [9]), 70.4 nM.

Turning to `Cc1cc(-c2[nH]c3cc(C(F)(F)F)c(C4CCNCC4)cc3c2C(C)C)ccn1` [Example 74, 3-isopropyl-2-(2-methylpyridin-4-yl)-5-(piperidin-4-yl)-6-(trifluoromethyl)-1H-indole], the IC50 in test [1] (setting [7]) is 437 nM; in test [2] (setting [8]), 1160 nM; in test [3] (setting [9]), 13.1 nM.
